According to PMC11597207, “Synthesis and Anti-Inflammatory and Analgesic Potentials of Ethyl 2-(2,5-Dioxo-1-Phenylpyrrolidin-3-yl)-2-Methylpropanoate” (Pharmaceuticals, 2024):

Tests used:
[1] = system: carrageenan-induced paw edema; experiment: Carrageenan-induced paw edema model; assay type: in vivo; conditions: mice, dose 10 mg/kg
Description: The anti-inflammatory activity of MAK01 was evaluated through a carrageenan-induced paw edema model. The mice, with weights ranging from 25 to 30 g, were separated into five distinct groups, these being Vehicle Group 1, Aspirin Group 2, and different concentrations of MAK01 in Groups 3–5. Each of these groups comprised five mice. The negative control group in the experiment received a specific solution comprising normal saline, DMSO, and Tween-80. The mixture contained 94% normal saline, 5% DMSO, and 1% Tween-80, delivered at a concentration of 10 mL per kg. In contrast, the positive control group in the assay received the comparator aspirin at a precise dose of 10 mg/kg. The test samples were administered at doses of 10 mg/kg, 20 mg/kg, and 30 mg/kg, given intra-peritoneally. After 30 min, a 2% carrageenan suspension (0.2 mL) was administered to each mouse in every group via a subcutaneous injection in the hind paw. In the experiment, a plethysmometer was used to precisely measure inflammation and edema. These measurements were taken at multiple time points both prior to and following the carrageenan administration. Specifically, the readings were recorded at 1, 2, 3, 4, and 5 h intervals to monitor the progress of the inflammatory response and paw swelling. These obtained results were then compared against the outcomes from the negative control group. The gathered data from the experiment, relating to the impact of the newly synthesized compounds on paw edema, were carefully processed to derive the percentage of edema inhibition. Using the below equation, the percent inhibition was calculated. % Inhibition=Ce−Te/Ce×100
In the formula, ‘Ce’ refers to the control group paw edema volume, while ‘Te’ denotes test groups’ paw edema volume.

mice = experiment: Hot plate antinociceptive test; assay type: in vivo; conditions: dose 5 mg/kg
5-LOX = biological target: T1, 5-LOX (Homo sapiens, UniProt P09917); experiment: 5-LOX inhibitory assay; assay type: biochemical; conditions: read-out: 5-LOX percent inhibition
T1 construct: purchased Cayman Chemical Batch No.: A3457
T1 sequence (P09917 1-674): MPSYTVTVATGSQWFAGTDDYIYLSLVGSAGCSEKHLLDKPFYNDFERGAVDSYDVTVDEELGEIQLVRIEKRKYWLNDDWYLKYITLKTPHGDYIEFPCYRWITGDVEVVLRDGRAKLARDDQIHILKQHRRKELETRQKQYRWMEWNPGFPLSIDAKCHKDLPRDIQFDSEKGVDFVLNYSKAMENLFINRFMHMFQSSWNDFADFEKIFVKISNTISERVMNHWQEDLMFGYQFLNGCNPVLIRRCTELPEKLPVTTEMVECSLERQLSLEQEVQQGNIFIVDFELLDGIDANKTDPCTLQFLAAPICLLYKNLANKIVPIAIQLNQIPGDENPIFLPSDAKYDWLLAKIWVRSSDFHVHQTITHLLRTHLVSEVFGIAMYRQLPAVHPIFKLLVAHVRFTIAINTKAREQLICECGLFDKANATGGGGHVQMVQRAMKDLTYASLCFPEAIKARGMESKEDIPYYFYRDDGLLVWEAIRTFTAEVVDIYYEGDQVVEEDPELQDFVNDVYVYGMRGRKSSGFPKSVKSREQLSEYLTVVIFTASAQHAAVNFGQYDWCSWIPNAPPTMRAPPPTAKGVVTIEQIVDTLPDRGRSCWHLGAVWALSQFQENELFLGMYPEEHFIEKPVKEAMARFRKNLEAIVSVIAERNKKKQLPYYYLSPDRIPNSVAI
Description: The activity of MAK01 against the 5-LOX enzyme was investigated using a human recombinant form of 5-LOX [47]. To begin the 5-LOX activity assay, a 10,000 U/mL solution of 5-LOX was prepared in a phosphate buffer with a pH of 6.3. A range of concentrations of the test compounds in the same buffer were prepared for assay. As a substrate for 5-LOX, linoleic acid (80 mM) was diluted with ethyl alcohol and used in the assay. The experiment involved mixing the same amount of both the enzyme solution and the test sample, such as mixing 0.25 mL 5-LOX with 0.25 mL of the compound, both dissolved in buffer. The mixing was followed by incubation at 25 °C for 5 to 10 min. Subsequently, 0.10 mL of the linoleic acid solution was added and allowed to incubate for another 5 min. The absorbance was measured using a UV–visible spectrophotometer at a wavelength of 234 nm, and the percent inhibition was calculated based on the absorbance readings. The same procedure was repeated for different concentrations of the test samples. Zileuton, as a reference drug, was used in comparisons. Using the following formula, the percent inhibition for each sample was calculated: % Inhibition=Abs. of Control−Abs. of Sample/Abs. of Control×100

SMILES: CC(=O)Oc1ccccc1C(=O)O [Aspirin, aspirin, reference compound]
- Paw Edema Inhibition in Percent ([1]; 1 h): 47.46 ± 0.80%
- Paw Edema Inhibition in Percent ([1]; 2 h): 54.42 ± 1.10%
- Paw Edema Inhibition in Percent ([1]; 3 h): 55.23 ± 0.73%
- Paw Edema Inhibition in Percent ([1]; 4 h): 56.22 ± 1.34%
- Paw Edema Inhibition in Percent ([1]; 5 h): 57.57 ± 1.23%

SMILES: CN1CC[C@]23c4c5ccc(O)c4O[C@H]2[C@@H](O)C=C[C@H]3[C@H]1C5 [Morphine, morphine, reference compound]
- Latency Time (Seconds) on Hot Plate (mice; 30 min): 13.83 ± 0.63 s
- Latency Time (Seconds) on Hot Plate (mice; 60 min): 13.52 ± 0.23 s
- Latency Time (Seconds) on Hot Plate (mice; 90 min): 13.29 ± 0.78 s
- Latency Time (Seconds) on Hot Plate (mice; 120 min): 12.92 ± 0.56 s
- Latency Time (Seconds) on Hot Plate (mice; 150 min): 12.59 ± 0.41 s

SMILES: CC(c1cc2ccccc2s1)N(O)C(N)=O (stereo not drawn) [Zileuton, zileuton, reference compound]
- inhibition at 62.5 µg/mL (5-LOX): 74%
- inhibition at 125 µg/mL (5-LOX): 78%
- inhibition at 250 µg/mL (5-LOX): 81%
- inhibition at 500 µg/mL (5-LOX): 85%
- inhibition at 1000 µg/mL (5-LOX): 94%
